# Reference: ChEMBL document CHEMBL1201862, “PubChem BioAssay data set” (2004)
# Activity calls are given as the source filed them.
# How the values were obtained:
# Trypsin = Trypsin (Sus scrofa, UniProt P00761); test: trypsin protease activity blockade – biochemical, quenched peptide fluorescence, cherry-pick, selectivity assay for Rce1 protease inhibitor project, dose response (AID 488789)
# CAAX prenyl protease 2 = target: T1, CAAX prenyl protease 2 (Saccharomyces cerevisiae S288c, UniProt Q03530); assay type: biochemical
# T1 sequence (Q03530 whole entry): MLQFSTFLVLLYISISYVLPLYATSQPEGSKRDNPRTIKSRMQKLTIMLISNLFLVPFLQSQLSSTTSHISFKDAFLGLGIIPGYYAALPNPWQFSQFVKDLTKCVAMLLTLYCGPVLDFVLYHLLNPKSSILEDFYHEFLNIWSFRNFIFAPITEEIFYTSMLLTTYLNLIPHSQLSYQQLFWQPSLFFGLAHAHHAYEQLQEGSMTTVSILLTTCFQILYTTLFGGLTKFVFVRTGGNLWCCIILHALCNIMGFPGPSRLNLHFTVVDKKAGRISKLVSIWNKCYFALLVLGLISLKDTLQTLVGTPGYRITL
# Cytochrome P450 2C9 = Cytochrome P450 2C9 (Homo sapiens, UniProt P11712)
# Cytochrome P450 2C9, sequence (P11712 whole entry): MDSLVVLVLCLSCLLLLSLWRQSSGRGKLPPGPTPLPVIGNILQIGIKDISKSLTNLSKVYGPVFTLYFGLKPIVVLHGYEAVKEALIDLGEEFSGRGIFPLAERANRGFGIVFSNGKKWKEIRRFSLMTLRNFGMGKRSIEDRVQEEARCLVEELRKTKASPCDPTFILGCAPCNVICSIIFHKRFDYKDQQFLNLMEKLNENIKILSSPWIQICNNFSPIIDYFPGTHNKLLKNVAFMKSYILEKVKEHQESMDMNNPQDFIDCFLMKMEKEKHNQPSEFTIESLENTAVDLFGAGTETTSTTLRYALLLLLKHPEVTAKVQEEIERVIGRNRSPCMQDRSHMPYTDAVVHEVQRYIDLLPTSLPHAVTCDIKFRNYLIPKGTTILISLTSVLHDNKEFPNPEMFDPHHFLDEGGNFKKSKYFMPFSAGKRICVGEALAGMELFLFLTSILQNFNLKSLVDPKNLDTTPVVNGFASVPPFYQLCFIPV
# Cytochrome P450 2D6 = Cytochrome P450 2D6 (Homo sapiens, UniProt P10635);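 note: CYP2D6 member of a cytochrome P450 panel assay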
# Cytochrome P450 2D6, sequence (P10635 whole entry): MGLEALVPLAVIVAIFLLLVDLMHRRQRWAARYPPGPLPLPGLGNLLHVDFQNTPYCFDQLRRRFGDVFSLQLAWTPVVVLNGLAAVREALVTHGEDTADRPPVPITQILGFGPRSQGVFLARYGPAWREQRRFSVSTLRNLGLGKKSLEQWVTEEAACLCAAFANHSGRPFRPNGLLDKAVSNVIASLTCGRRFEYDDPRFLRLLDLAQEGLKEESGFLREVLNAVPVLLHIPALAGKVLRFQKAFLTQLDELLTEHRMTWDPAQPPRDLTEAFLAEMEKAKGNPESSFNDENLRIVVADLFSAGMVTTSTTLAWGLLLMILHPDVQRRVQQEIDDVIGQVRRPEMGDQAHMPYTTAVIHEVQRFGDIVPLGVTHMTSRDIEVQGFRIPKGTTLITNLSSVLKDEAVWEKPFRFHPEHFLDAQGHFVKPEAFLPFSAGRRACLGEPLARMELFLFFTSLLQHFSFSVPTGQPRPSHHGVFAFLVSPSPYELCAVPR
# Mucolipin-3 = target: T2, Mucolipin-3 (Homo sapiens, UniProt Q8TDD5); test: Dose response cell-based high-throughput screening assay for agonists of the transient receptor potential channel ML3 (TRPML3). [Related pubchem assays: 1526, 1424, 1448 ]; assay type: functional
# T2 sequence (Q8TDD5 whole entry): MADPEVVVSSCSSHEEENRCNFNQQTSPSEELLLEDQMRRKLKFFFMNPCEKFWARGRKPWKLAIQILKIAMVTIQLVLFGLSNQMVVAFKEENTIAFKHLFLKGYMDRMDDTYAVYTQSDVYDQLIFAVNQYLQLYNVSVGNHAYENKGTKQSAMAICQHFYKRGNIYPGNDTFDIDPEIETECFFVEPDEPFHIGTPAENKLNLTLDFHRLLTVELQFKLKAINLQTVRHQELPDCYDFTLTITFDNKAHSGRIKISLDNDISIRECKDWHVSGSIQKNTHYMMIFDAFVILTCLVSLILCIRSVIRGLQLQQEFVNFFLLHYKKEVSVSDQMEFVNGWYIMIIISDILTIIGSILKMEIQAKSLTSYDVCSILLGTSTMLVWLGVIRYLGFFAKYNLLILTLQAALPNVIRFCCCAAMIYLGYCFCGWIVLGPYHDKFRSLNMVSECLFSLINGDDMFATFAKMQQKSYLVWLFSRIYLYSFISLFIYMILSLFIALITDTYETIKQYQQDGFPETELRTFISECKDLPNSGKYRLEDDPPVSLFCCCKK
# Ion channel NompC = Ion channel NompC (Danio rerio, UniProt Q7T1G6); test: Fluorescence counterscreen assay for TRPML3 agonists: dose response cell-based high-throughput screening assay to identify agonists of the transient receptor potential channel N1 (TRPN1). [Related pubchem assays: 1526, 1424, 1448 ]; assay type: functional
# Ion channel NompC, sequence (Q7T1G6 whole entry): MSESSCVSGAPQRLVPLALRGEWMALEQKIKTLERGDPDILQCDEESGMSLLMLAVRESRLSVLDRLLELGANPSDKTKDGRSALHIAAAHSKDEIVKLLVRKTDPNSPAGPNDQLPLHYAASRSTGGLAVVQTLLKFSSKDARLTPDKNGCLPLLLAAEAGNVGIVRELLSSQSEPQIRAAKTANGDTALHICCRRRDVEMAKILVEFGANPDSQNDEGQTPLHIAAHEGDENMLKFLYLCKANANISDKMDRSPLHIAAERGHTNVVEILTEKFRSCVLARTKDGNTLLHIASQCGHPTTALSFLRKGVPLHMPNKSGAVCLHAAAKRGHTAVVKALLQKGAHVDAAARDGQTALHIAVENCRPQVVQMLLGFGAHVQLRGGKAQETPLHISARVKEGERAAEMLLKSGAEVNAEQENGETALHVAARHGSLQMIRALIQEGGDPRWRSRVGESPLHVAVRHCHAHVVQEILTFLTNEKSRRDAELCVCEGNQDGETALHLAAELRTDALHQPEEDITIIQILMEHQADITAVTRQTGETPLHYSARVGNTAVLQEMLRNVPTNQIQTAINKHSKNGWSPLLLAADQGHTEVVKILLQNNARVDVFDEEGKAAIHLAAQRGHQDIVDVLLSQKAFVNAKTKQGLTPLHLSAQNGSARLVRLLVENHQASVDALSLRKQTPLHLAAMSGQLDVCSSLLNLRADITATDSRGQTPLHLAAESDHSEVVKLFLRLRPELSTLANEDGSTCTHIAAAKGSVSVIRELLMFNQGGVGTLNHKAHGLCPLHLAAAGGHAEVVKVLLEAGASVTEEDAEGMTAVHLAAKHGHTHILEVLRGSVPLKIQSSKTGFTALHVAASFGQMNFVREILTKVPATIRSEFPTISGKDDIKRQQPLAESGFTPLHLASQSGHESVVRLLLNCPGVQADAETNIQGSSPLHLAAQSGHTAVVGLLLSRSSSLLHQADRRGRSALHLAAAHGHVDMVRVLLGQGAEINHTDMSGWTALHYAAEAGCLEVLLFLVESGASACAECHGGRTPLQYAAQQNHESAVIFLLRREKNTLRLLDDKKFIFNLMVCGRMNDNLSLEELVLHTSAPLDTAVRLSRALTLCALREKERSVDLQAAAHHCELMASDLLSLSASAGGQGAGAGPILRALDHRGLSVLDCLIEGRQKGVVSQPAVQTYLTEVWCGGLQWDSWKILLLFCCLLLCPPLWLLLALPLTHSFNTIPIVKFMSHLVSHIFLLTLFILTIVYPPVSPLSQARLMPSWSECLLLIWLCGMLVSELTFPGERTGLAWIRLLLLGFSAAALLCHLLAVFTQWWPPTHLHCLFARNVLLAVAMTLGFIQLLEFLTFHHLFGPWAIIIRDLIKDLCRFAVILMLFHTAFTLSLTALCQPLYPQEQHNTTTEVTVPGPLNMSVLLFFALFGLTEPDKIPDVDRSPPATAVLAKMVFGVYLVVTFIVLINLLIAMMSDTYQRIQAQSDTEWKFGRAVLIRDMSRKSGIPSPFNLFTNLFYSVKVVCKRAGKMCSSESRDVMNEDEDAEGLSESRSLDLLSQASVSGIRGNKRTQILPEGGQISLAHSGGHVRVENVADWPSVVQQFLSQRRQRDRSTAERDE
# [1] = A Cell Based Secondary Assay To Explore Cytotoxicity of Compounds that Sensitize Mycobacterium Tuberculosis to Beta-Lactam Antibiotics.; assay type: functional
# HeLa = test: viability loss in HeLa cells – cell-based, 24 h, cherry-picked samples, cytotoxicity control, dose response (AID 504726); assay type: functional; conditions: Homo sapiens;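 note: potency for cytotoxicity as loss of luminescence signal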
# X-box-binding protein 1 = target: T3, X-box-binding protein 1 (Homo sapiens, UniProt P17861); assay type: functional, Cricetulus griseus;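 note: confirmatory dose-response counter-screen serving a CHOP assay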
# T3 sequence (P17861 whole entry): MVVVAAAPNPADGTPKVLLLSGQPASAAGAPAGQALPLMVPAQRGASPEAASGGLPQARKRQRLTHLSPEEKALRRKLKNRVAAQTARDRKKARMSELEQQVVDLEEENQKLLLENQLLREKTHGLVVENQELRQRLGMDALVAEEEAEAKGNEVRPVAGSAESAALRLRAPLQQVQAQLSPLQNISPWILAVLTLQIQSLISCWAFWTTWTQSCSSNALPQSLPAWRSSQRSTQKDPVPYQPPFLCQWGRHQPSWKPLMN
# Bcl-2-like protein 10 = target: T4, Bcl-2-like protein 10 (Homo sapiens, UniProt Q9HD36); test: Bcl-B/TR3 peptide binding disruption – biochemical, fluorescence polarization, FITC-TR3 peptide, selectivity assay for Bfl-1 inhibitor project, primary screen (AID 748);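 note: fluorescence polarization from a fluorescein-labelled TR3 peptide binding purified Bcl-B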
# T4 sequence (Q9HD36 whole entry): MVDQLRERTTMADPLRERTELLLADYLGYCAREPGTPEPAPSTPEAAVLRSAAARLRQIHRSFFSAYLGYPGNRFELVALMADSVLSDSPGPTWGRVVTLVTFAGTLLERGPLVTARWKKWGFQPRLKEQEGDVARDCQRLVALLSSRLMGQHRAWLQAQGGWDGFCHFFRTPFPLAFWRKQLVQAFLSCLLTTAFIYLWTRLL
# [2] = target: T5, Heat shock factor protein 1 (Mus musculus, UniProt P38532); test: decrease of HSF1-responsive luciferase luminescence – cell-based, NIH3T3, dose retest, confirmation (AID 2382); assay type: functional;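 note: NIH3T3 fibroblasts with HSF1-driven luciferase reporter stressed by proteasome inhibitor MG132; luminescence from HSF1-driven luciferase expression after 8 hours of MG132 stress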
# T5 sequence (P38532 whole entry): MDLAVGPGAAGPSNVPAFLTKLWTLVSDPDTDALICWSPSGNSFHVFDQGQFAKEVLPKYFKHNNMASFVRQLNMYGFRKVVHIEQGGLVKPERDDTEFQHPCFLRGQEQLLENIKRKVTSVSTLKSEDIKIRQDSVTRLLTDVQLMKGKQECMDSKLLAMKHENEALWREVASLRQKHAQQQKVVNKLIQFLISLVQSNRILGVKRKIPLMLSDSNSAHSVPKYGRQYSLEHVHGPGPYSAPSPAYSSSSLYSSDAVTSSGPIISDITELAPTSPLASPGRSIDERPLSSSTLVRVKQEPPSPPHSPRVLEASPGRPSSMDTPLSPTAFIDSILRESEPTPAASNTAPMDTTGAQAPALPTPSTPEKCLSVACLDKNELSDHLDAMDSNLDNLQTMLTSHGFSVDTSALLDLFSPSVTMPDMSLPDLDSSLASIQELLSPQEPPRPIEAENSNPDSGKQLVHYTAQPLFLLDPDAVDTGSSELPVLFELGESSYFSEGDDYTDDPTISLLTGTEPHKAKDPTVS
# [3] = target: G-protein coupled receptor 55 (Homo sapiens, UniProt Q9Y2T6); test: inhibition of LPI-stimulated GPR55 beta-arrestin translocation – imaging, U2OS, beta-arrestin-GFP, LPI agonist, primary screen (AID 2013); assay type: functional;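 note: antagonist potency measured as reduced agonist-driven arrestin aggregation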
# G-protein coupled receptor 55, sequence (Q9Y2T6 whole entry): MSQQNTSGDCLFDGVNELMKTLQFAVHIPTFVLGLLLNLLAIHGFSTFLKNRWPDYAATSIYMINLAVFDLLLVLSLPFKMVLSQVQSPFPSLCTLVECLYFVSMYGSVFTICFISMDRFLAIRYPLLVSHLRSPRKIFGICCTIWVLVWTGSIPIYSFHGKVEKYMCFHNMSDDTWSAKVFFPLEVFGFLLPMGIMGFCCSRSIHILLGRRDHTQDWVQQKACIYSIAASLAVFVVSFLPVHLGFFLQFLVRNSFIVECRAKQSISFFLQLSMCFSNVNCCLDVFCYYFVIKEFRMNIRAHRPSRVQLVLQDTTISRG
# Trypsin, sequence (P00761 whole entry): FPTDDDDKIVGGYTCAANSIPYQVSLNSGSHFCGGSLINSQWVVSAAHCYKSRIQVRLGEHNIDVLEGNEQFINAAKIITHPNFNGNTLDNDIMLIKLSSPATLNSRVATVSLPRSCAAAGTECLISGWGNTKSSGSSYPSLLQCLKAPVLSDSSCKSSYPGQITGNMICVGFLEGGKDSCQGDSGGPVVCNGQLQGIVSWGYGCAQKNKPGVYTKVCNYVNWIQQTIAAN
smiles,measurement,setting,value
Cc1cc(C)n2cc(CSc3nncn3C)nc2n1,AC50,Trypsin,8.35 µM (active)
same,AC50,CAAX prenyl protease 2,13.8 µM (active)
O=c1c(-c2nnc(SCc3ccc(Cl)c(Cl)c3)o2)cccn1Cc1ccccc1,AC50,Cytochrome P450 2C9,15.8 µM (inconclusive)
same,AC50,Cytochrome P450 2D6,28.2 µM (inconclusive)
same,AC50,CAAX prenyl protease 2,11 µM (active)
O=S(=O)(Nc1ccccc1N1CCCCC1)c1ccc(F)cc1,EC50,Mucolipin-3,3.27 µM (active)
same,EC50,Ion channel NompC,> 29.9 µM (not active)
CCN1C(=O)[C@@H]2[C@@H](c3ccc(-c4ccc(Cl)c(Cl)c4)c(OC)c3)N3CCC[C@@]3(C(=O)OC)[C@@H]2C1=O,CC50,[1],30.4 µM (active)
CCOC(=O)c1cnc(SC)nc1Sc1ccc(Cl)cc1Cl,AC50,HeLa,261 µM (active)
CCN(CC)CCOC(=O)c1ccc(N/C=C(/C#N)c2nc(-c3cccc(OC)c3)cs2)cc1,Absolute IC50 (XBP1),X-box-binding protein 1,10 µM
Cc1c(NC(=O)c2cc3nc(-c4ccccc4)cc(C)n3n2)c(=O)n(-c2ccccc2)n1C,IC50,Bcl-2-like protein 10,81.2 µM (inactive)
Cc1cc(C(C)(C)C)oc1C(=O)N(CC(=O)NC1CCCC1)c1c(C)cccc1C,EC50,[2],> 195 µM (not active)
same,EC50,Mucolipin-3,2.54 µM (active)
same,EC50,Ion channel NompC,> 29.9 µM (not active)
Cc1ccccc1N(C(=O)c1cccs1)c1nc2ccccc2s1,IC50,[3],1.52 µM (active)
COC(=O)c1ccc(NC2c3ncccc3C(=O)N2Cc2cccs2)cc1 (stereo not drawn),IC50,cells,5.98 µM (active)
CCOc1cc(S(=O)(=O)N2CCCCCC2)ccc1F,EC50,Mucolipin-3,> 29.9 µM (not active)
same,EC50,Ion channel NompC,> 29.9 µM (not active)
